Assays:
Assay type in all cases: in vivo
[1] = system: tall morningglory (Ipomoea purpurea (L.) Roth) (TM); test: Preemergence herbicide test, soil drench, tall morningglory; details: 10 lbs/A (11.2 kg/ha) soil drench, two weeks after treatment, vs untreated checks; for pest or weed control at 11208.5 g/ha: Ipomoea, 336 h, read-out: Percent Weed Control TM
Description: (§1) To illustrate the effectiveness of the previously described substituted oxadiazines of this invention as preemergence herbicides, 300 mg of the chemical was dissolved in a composition comprising 10 mL acetone to which 30 mg of tile emulsifying agent, ethoxylated sorbitan monolaurate, was added. The solution was diluted to 100 mL with distilled water. Ten milliliters of this 3000 ppm solution was diluted to 250 ppm with distilled water. The chemical was applied at the rate of 10 pounds/acre (11.2 kg/ha) by drenchings 46 mL of the 250 ppm solution on the surface of soil in 4½ inch (11.25 cm) plastic pots wherein seeds of the following weeds had been planted: tall morningglory (Ipomoea purpurea (L.) Roth) (TM), The percent control of the weeds compared to untreated checks was determined two weeks after treatment. TABLE 1 summarizes the results achieved with compounds formulated as indicated above, and the data clearly indicate the good to excellent herbicidal efficacy of compositions of this invention.

[2] = system: velvetleaf (Abutilon theophrasti Medik.) (VL); test: Preemergence herbicide test, soil drench, velvetleaf; details: 10 lbs/A (11.2 kg/ha) soil drench, two weeks after treatment, vs untreated checks; for pest or weed control at 11208.5 g/ha: Abutilon theophrasti, 336 h, read-out: Percent Weed Control VL
Description: as §1, with “velvetleaf (Abutilon theophrasti Medik.) (VL),” for “tall morningglory (Ipomoea purpurea (L.) Roth) (TM),”

[3] = system: green foxtail (Setaria virdis (L.) Beauv.) (GF); test: Preemergence herbicide test, soil drench, green foxtail; details: 10 lbs/A (11.2 kg/ha) soil drench, two weeks after treatment, vs untreated checks; for pest or weed control at 11208.5 g/ha: Setaria, 336 h, read-out: Percent Weed Control GF
Description: as §1, with “41⁄2” for “4½”, “green foxtail (Setaria […].) Beauv.) (GF).” for “tall morningglory (Ipomoea purpurea (L.) Roth) (TM),”

[4] = system: barnyardgrass (Echinochloa crus-galli (L.) Beauv.) (BG); test: Preemergence herbicide test, soil drench, barnyardgrass; details: 10 lbs/A (11.2 kg/ha) soil drench, two weeks after treatment, vs untreated checks; for pest or weed control at 11208.5 g/ha: Echinochloa crus-galli, 336 h, read-out: Percent Weed Control BG
Description: as §1, with “barnyardgrass (Echinochloa crus-galli” for “tall morningglory (Ipomoea purpurea”, “Beauv.) (BG), and” for “Roth) (TM),”

[5] = system: switchgrass (Panicum virgahim L.) (SG); test: Preemergence herbicide test, soil drench, switchgrass; details: 10 lbs/A (11.2 kg/ha) soil drench, two weeks after treatment, vs untreated checks; for pest or weed control at 11208.5 g/ha: Panicum, 336 h, read-out: Percent Weed Control SG
Description: as §1, with “planted:” for “planted: tall morningglory (Ipomoea purpurea (L.) Roth) (TM), The percent control of the weeds compared to untreated checks was determined two weeks after treatment. TABLE 1 summarizes the results achieved with compounds formulated as indicated above, and the data clearly indicate the good to excellent herbicidal efficacy of compositions of this invention.”
switchgrass (Panicum virgahim L.) (SG),
(§2) The percent control of the weeds compared to untreated checks was determined two weeks after treatment. TABLE 1 summarizes the results achieved with compounds formulated as indicated above, and the data clearly indicate the good to excellent herbicidal efficacy of compositions of this invention.

[6] = system: jimsonweed (Datura stramonium L.) (JW); test: Preemergence herbicide test, soil drench, jimsonweed; details: 10 lbs/A (11.2 kg/ha) soil drench, two weeks after treatment, vs untreated checks
Description: as §1, with “jimsonweed (Datura stramonium L.) (JW),” for “tall morningglory (Ipomoea purpurea (L.) Roth) (TM),”

[7] = system: prickly sida (Sida spinosa L.) (PS); test: Preemergence herbicide test, soil drench, prickly sida; details: 10 lbs/A (11.2 kg/ha) soil drench, two weeks after treatment, vs untreated checks; for pest or weed control at 11208.5 g/ha: Sida spinosa, 336 h, read-out: Percent Weed Control PS
Description: To illustrate the effectiveness of the previously described substituted oxadiazines of this invention as preemergence herbicides, 300 mg of the chemical was dissolved in a composition comprising 10 mL acetone to which 30 mg of tile emulsifying agent, ethoxylated sorbitan monolaurate, was added. The solution was diluted to 100 mL with distilled water. Ten milliliters of this 3000 ppm solution was diluted to 250 ppm with distilled water. […]
prickly sida (Sida spinosa L.) (PS),
as §2

## FC(F)(F)C1=NC(C(F)(F)F)(C(F)(F)F)N=C(c2ccccc2C(F)(F)F)O1 [Compound 6, 2,4,4-tris(trifluoromethyl)-6-{(2-trifluoromethyl)phenyl}-4H-1,3,5-oxadiazine]
[1]
  Percent Weed Control TM: 100%
[2]
  Percent Weed Control VL: 100%
[3]
  Percent Weed Control GF: 100%
[4]
  Percent Weed Control BG: 50%
[5]
  Percent Weed Control SG: 75%
[6]
  Percent Weed Control JW: 75%

## FC(F)(F)C(F)(F)C1=NC(C(F)(F)F)(C(F)(F)F)N=C(c2cc(Cl)cc(Cl)c2)O1 [Compound 21, 2-(3,5-dichlorophenyl)-6-(pentafluoroethyl)-4,4-bis(trifluoromethyl)-4H-1,3,5-oxadiazine]
[1]
  pest or weed control at 11208.5 g/ha: 100%
[2]
  pest or weed control at 11208.5 g/ha: 100%
[3]
  pest or weed control at 11208.5 g/ha: 100%
[4]
  pest or weed control at 11208.5 g/ha: 100%
[5]
  pest or weed control at 11208.5 g/ha: 100%
[6]
  Percent Weed Control JW: 100%

## FC(F)(F)C1=NC(C(F)(F)F)(C(F)(F)F)N=C(c2ccc(Cl)cc2)O1 [Compound 5, 2-(4-chlorophenyl)-4,4,6-tris(trifluoromethyl)-4H-1,3,5-oxadiazine]
[1]
  pest or weed control at 11208.5 g/ha: 100%
[2]
  pest or weed control at 11208.5 g/ha: 100%
[3]
  pest or weed control at 11208.5 g/ha: 100%
[4]
  pest or weed control at 11208.5 g/ha: 100%
[5]
  pest or weed control at 11208.5 g/ha: 100%
[6]
  Percent Weed Control JW: 100%

## FC(F)(F)C(F)(F)C1=NC(C(F)(F)F)(C(F)(F)F)N=C(c2ccccc2Cl)O1 [Compound 12, 2-(2-chlorophenyl)-6-(pentafluoroethyl)-4,4-bis(trifluoromethyl)-4H-1,3,5-oxadiazine]
[1]
  pest or weed control at 11208.5 g/ha: 100%
[2]
  pest or weed control at 11208.5 g/ha: 100%
[3]
  pest or weed control at 11208.5 g/ha: 100%
[4]
  pest or weed control at 11208.5 g/ha: 0%
[5]
  pest or weed control at 11208.5 g/ha: 75%
[6]
  Percent Weed Control JW: 100%

## O=[N+]([O-])c1ccc(C2=NC(C(F)(F)F)(C(F)(F)F)N=C(C(F)(F)F)O2)cc1 [Compound 10, 2-(4-nitrophenyl)-4,4,6-tris(trifluoromethyl)-4H-1,3,5-oxadiazine]
[1]
  pest or weed control at 11208.5 g/ha: 50%
[2]
  pest or weed control at 11208.5 g/ha: 80%
[7]
  pest or weed control at 11208.5 g/ha: 80%
[3]
  pest or weed control at 11208.5 g/ha: 80%
[4]
  pest or weed control at 11208.5 g/ha: 80%
[5]
  pest or weed control at 11208.5 g/ha: 80%

## Fc1ccc(C2=NC(C(F)(F)F)(C(F)(F)F)N=C(C(F)(F)C(F)(F)C(F)(F)F)O2)cc1 [Compound 28, 2-(4-fluorophenyl)-6-(heptafluoropropyl)-4,4-bis(trifluoromethyl)-4H-1,3,5-oxadiazine]
[1]
  pest or weed control at 11208.5 g/ha: 100%
[2]
  pest or weed control at 11208.5 g/ha: 100%
[7]
  pest or weed control at 11208.5 g/ha: 100%
[3]
  pest or weed control at 11208.5 g/ha: 0%
[4]
  pest or weed control at 11208.5 g/ha: 0%
[5]
  pest or weed control at 11208.5 g/ha: 0%

## FC(F)(F)c1ccc(C2=NC(C(F)(F)F)(C(F)(F)F)N=C(C(F)(F)C(F)(F)F)O2)cc1 [Compound 15]
[1]
  Percent Weed Control TM: 100%
[2]
  Percent Weed Control VL: 100%
[7]
  Percent Weed Control PS: 100%
[3]
  Percent Weed Control GF: 100%
[4]
  Percent Weed Control BG: 100%
[5]
  Percent Weed Control SG: 100%

## FC(F)(F)C1=NC(C(F)(F)F)(C(F)(F)F)N=C(c2ccc(Br)cc2)O1 [Compound 2, 2-(4-bromophenyl)-4,4,6-tris(trifluoromethyl)-4H-1,3,5-oxadiazine]
[1]
  pest or weed control at 11208.5 g/ha: 100%
[2]
  pest or weed control at 11208.5 g/ha: 100%
[7]
  pest or weed control at 11208.5 g/ha: 100%
[3]
  pest or weed control at 11208.5 g/ha: 100%
[4]
  pest or weed control at 11208.5 g/ha: 100%
[5]
  pest or weed control at 11208.5 g/ha: 100%

## Fc1cc(F)cc(C2=NC(C(F)(F)F)(C(F)(F)F)N=C(C(F)(F)C(F)(F)F)O2)c1 [Compound 19, 2-(3,5-difluorophenyl)-6-(pentafluoroethyl)-4,4-bis(trifluoromethyl)-4H-1,3,5-oxadiazine]
[1]
  pest or weed control at 11208.5 g/ha: 100%
[2]
  pest or weed control at 11208.5 g/ha: 100%
[7]
  pest or weed control at 11208.5 g/ha: 100%
[3]
  pest or weed control at 11208.5 g/ha: 100%
[4]
  pest or weed control at 11208.5 g/ha: 100%
[5]
  pest or weed control at 11208.5 g/ha: 100%

## FC(F)(F)C(F)(F)C(F)(F)C1=NC(C(F)(F)F)(C(F)(F)F)N=C(c2ccc(Br)cc2)O1 [Compound 27, 2-(4-bromophenyl)-6-(heptafluoropropyl)-4,4-bis(trifluoromethyl)-4H-1,3,5-oxadiazine]
[1]
  pest or weed control at 11208.5 g/ha: 95%
[2]
  pest or weed control at 11208.5 g/ha: 100%
[7]
  pest or weed control at 11208.5 g/ha: 100%
[3]
  pest or weed control at 11208.5 g/ha: 0%
[4]
  pest or weed control at 11208.5 g/ha: 0%
[5]
  pest or weed control at 11208.5 g/ha: 0%

## Fc1ccc(C2=NC(C(F)(F)F)(C(F)(F)F)N=C(C(F)(F)C(F)(F)F)O2)cc1 [Compound 17, 2-(4-fluorophenyl)-6-(pentafluoroethyl)-4,4-bis(trifluoromethyl)-4H-1,3,5-oxadiazine]
[1]
  pest or weed control at 11208.5 g/ha: 100%
[2]
  pest or weed control at 11208.5 g/ha: 100%
[7]
  pest or weed control at 11208.5 g/ha: 100%
[3]
  pest or weed control at 11208.5 g/ha: 50%
[4]
  pest or weed control at 11208.5 g/ha: 100%
[5]
  pest or weed control at 11208.5 g/ha: 50%

Source: patent US6514911B1, “Substituted oxadiazines useful as pesticides” (Uniroyal Chemical Company, Inc., priority 2002, dated 2003)
